Results on four molecules are retold here after patent US11793824B2, “Administration of nicotinamide mononucleotide in the treatment of disease” (Washington University, priority 2013, dated 2023).

Structures are written as SMILES.

For one data set, the target named is T1, Sirt2 (Mus musculus, UniProt Q8VDQ8).
T1 construct: endogenous in cells; host or cells: dissociated primary neurospheres (NSPCs) from postnatal mouse hippocampi, differentiated for 6-7 days
T1 sequence (Q8VDQ8 1-389): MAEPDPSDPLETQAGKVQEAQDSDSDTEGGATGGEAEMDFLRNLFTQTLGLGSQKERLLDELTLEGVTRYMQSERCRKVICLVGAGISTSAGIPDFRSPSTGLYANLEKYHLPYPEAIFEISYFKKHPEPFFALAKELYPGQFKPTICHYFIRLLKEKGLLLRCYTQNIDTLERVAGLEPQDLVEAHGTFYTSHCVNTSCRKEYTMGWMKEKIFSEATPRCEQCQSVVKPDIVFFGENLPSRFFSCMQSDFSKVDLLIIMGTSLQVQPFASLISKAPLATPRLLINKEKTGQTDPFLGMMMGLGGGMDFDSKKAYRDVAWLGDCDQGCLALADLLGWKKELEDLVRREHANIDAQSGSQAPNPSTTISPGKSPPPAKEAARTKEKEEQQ
Kind of data set: Oligodendrocyte formation from dissociated neurospheres with Sirt2 inhibitor. It counts as cell-based. Conditions: AGK2 10 μM, 6-7 days of differentiation. The method, then: FK866 (Hasmann & Schemainda, 2003) (Sigma F8557), EX527 (Peck et al, 2010) (Cayman Chemical 10009798), and AGK2 (Outeiro et al, 2007) (Sigma A8231) were dissolved in DMSO and used to inhibit Nampt, Sirt1, and Sirt2 respectively.
Three to five days after their first passage, neurospheres were trypsinized, washed with dissociation medium, and plated at 150,000 cells per well in 24-well plates in differentiation medium [growth medium without FGF and EGF and with BDNF (5 ng/mL, Peprotech, 450-02) on glass coverslips coated with poly-D-lysine (50 ug/mL; Sigma) and laminin (20 ug/mL; BD Biosciences)]. 6-well plates were coated with poly-D-lysine (20 ug/mL) and laminin (10 ug/mL). To enrich for oligodendrocytes, PDGFαα (10 ng/ml, Peprotech 100-13A) was added to neurospheres at passage 2 and PDGFαα (2.5 ng/ml) and 3,3-,5-triiodo-L-thyronine (T3, 40 ng/ml, Sigma T4397) were added to differentiation medium. The percentage of oligodendrocyte precursor cells (OPCs) generated was analyzed after 2 d of differentiation, and the percentage of differentiated oligodendrocytes was analyzed after 6-7 d of differentiation.
The inventors acutely treated NSPCs with the selective inhibitor of Sirt2, AGK2, or the Sirt1 inhibitor, EX527. […] The inventors generated Sirt1/Sirt2-double knockout (Sirt1/2 DKO) neurospheres. […]

For another data set, the target named is T2, Sirt1 (Mus musculus, UniProt Q923E4).
T2 construct: endogenous in cells; host or cells: dissociated primary neurospheres (NSPCs) from postnatal mouse hippocampi, differentiated for 6-7 days
T2 sequence (Q923E4 1-737): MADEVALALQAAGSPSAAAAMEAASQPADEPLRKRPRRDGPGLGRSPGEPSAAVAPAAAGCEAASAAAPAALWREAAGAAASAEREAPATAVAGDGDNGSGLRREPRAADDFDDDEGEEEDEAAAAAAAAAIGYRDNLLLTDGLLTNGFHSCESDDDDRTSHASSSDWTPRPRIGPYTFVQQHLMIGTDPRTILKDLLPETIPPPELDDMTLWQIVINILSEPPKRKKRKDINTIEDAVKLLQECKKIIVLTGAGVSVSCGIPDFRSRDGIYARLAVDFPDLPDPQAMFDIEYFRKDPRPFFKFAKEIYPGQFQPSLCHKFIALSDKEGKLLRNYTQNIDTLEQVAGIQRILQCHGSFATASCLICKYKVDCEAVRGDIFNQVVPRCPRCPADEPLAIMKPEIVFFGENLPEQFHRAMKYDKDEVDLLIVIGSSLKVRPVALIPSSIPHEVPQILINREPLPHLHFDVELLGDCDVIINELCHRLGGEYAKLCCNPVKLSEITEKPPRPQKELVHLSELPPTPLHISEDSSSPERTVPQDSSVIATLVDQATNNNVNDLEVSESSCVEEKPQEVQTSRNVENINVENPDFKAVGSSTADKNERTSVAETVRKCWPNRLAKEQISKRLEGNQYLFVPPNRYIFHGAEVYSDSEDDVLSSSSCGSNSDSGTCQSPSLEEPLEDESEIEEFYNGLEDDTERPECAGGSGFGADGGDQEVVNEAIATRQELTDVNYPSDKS
The data set can be described thus: Oligodendrocyte formation from dissociated neurospheres with Sirt1 inhibitor. It counts as cell-based. Conditions: EX527 80 μM, 6-7 days of differentiation.

In the next data set the test system is NestinGFP+ cells. Kind of data set: Cuprizone model of demyelination and remyelination, fate of NestinGFP+ cells. It counts as in vivo, mouse. On the procedure: Demyelination was induced by feeding 6 to 8-week-old mice a diet containing 0.2% cuprizone (bis-cyclohexanone oxaldihydrazone; Sigma C9012) mixed into a ground standard rodent chow for 4 to 5 weeks (Harlan Laboratories, TD.01453). To allow recovery from cuprizone treatment, food was replaced with standard chow for an additional 1 week.
All tissue sections were and cells incubated in blocking/permeabilization solution containing 10% normal goat serum, 1% BSA, and 0.3% Triton-X in PBS for 45 to 60 min prior to 24 or 48 h of incubation with primary antibodies in 5% normal goat serum and 0.1% Triton-X in PBS at 4° C. at the concentrations listed below. […], Alexa488, or Cy3 conjugated-secondary antibodies diluted in 2% normal goat serum, 1% BSA, and 0.1% Triton-X in PBS were added for 2 h at room temperature. Nuclei were stained with 4,6-diamidino-2-phenylindole (Sigma) for 10 min at room temperature.
For tissue sections, high-magnification (20×, 0.8DICII or 40× oil 1.3DICII) microscopic imaging was performed using a Zeiss Axioimage.Z1. Images were taken in z-stacks of 1 μm steps through the range of tissue section immunoreactivity. For the dorsolateral corner of the SVZ, images were taken from bregma 1.10 to −0.10 mm. For the corpus callosum, images were taken from bregma −1.06 to −2.54 mm. For the dentate gyrus, images were taken from bregma −1.34 to −3.64 mm. Quantification was performed blinded to genotype on 3-8 tissue sections per animal. Cell densities were estimated by the number of immunoreactive cells divided by the area of the structure, measured with ImageJ. Verification of colocalization was achieved by importing stacks of Z images into ImageJ and performing 3D rendering. For cells, 10 or 20× microscopic imaging was performed using a Zeiss Axioimage.Z1. Quantification was performed blinded to genotype on 2 to 3 fields of view per sample and treatment, from 3 to 9 independent samples.
The inventors employed the cuprizone model of demyelination and remyelination. Specifically, the inventors fed 6- to 9-week-old iNSPC-Nampt-KO and littermate control mice (iNSPC-GFP) a diet containing 0.2% cuprizone for 4-5 weeks, inducing deletion of Nampt in the adult Nestin+ population the week before starting the cuprizone diet (FIG. 20B) (Skripuletz et al, 2011). To ensure that analysis of progeny of adult Nestin+ cells, all mice in our cohort expressed Cre recombinase under the inducible Nestin promoter (Nestin-CreERT2) (Lagace et al, 2007) and the aforementioned Cre recombinase responsive GFP reporter transgene. The analysis focus was on lineage tracer marked (NestinGFP+) cells.

For data set [1] the following is noted: cited from earlier work.
[2] abbreviates: CC of control mice, cuprizone feeding.
Setting [3] is: iNSPC-GFP CC, cuprizone feeding.

Source text for Sirt1: Data are presented as mean±s.e.m. *P<0.05. **P<0.01. ***P<0.001.

Turning to `N#C/C(=C\c1ccc(-c2cc(Cl)ccc2Cl)o1)C(=O)Nc1cccc2ncccc12` [AGK2], the “oligodendrocyte formation (O4+)” value at Sirt2 is “acutely suppressed oligodendrocyte formation”.

As for `NC(=O)C1CCCc2c1[nH]c1ccc(Cl)cc21` (stereo not drawn) [EX527], the “oligodendrocyte formation (O4+)” value on Sirt1 is “acutely suppressed oligodendrocyte formation”.

Turning to `O=C(NN=C1CCCCC1)C(=O)NN=C1CCCCC1` [cuprizone, bis-cyclohexanone oxaldihydrazone], the “total number of NestinGFP+ cells in the iNSPC-GFP DG” value in the data set with NestinGFP+ cells (0.2% cuprizone diet 4-5 weeks) was “did not alter”. Moreover, in the data set on NestinGFP+ cells (setting [2]), the “NestinGFP+Apc+ double positive cells” value worked out at 4% and the “NestinGFP+Sox10+ double positive cells” value was 16%. Besides, in the data set with NestinGFP+ cells (SGZ, cuprizone fed), the “percentage of NestinGFP+ cells co-localized with Gfap+” value was found to be 41% and the “percentage of NestinGFP+ cells co-localized with Nestin+” value is 35%. Further, in the data set with NestinGFP+ cells (setting [3]), the “NestinGFP+Gfap+ double positive cells” value turned out to be 24% and the “percentage of NestinGFP+Nestin+ cells” value worked out at 41%.

As to `O=C(O)c1cccnc1` [nicotinic acid], the “skeletal muscle insulin resistance” value in data set [1] (chronic administration) is “can cause skeletal muscle insulin resistance”. Further, in data set [1] (chronic treatment), the “blood FFA levels” value was “tends to increase blood FFA levels”; the “total cholesterol and triglyceride levels” value is “lowers total cholesterol and triglyceride levels”.
